Literature values as cited in patent EP1136875A2, “Small 3D emulsions with enhanced photographic response” (EASTMAN KODAK COMPANY, priority 2000, dated 2001).

Conditions: value is for the conjugate acid of the printed base

Compared with `C[N+](C)(C)[O-]` [(CH3)3N^+–O^-], `CC(=O)S` [CH3–COS^-] is lower in “pKa's in water of the conjugate acids of some useful bases” value: 4.65 for the first, 3.33 for the second.

In the case of `CC(=O)NCC(=O)O` [CH3–CO–NH–CH2–CO2^-], the “pKa's in water of the conjugate acids of some useful bases” value is given as 3.67.
